The test system of experiment [1] is pERK (phospho-p44/42 ERK) in HCC827 cells. Put plainly: Cellular pERK Inhibition Assay, Method A (In-Cell Western). In kind it is cell-based. The conditions noted are these: Homo sapiens, Table 19, head prints unit as "-M", read-out: pERK (IC50) Method A. The protocol: Cellular pERK Inhibition Assay
pERK levels were determined using the In-Cell Western assay. HCC827 cells (ATCC, Manassas, USA) were seeded into 384-well plates at a density of 1×10^4 cells/well in RPMI1640 medium supplemented with 10% FBS and incubated 24h. Compounds were diluted first in DMSO and then into serum-free medium, before being added to cells in quadruplicate to give a final concentration of 0.2% DMSO. Plates were incubated at 37° C. for the indicated time in a humidified atmosphere of 5% CO2 in air.
Following compound treatment, cells were fixed with formalin neutral buffer solution for 20 minutes at room temperature. Plates were washed three times with 0.1% Triton-X in PBS and cells were blocked for 1 hour with Odyssey blocking buffer (LI-COR, #927-40000). After shaking out blocking buffer, cells were incubated with phospho-p44/42 ERK antibody (Cell Signalling Technology, #4370, 1:200) diluted in Odyssey blocking buffer at 4° C. overnight. Plates were washed again and cells were incubated for 1 hour with Goat anti-Rabbit […] (LI-COR, #926-32211, 1:800) diluted in Odyssey blocking buffer. After washing and removing wash solution completely using a centrifuge machine, cells were scanned on the Odyssey (LI-COR), following the manufacturer's instructions. The average signal from blank wells (no cells added) was subtracted from the signals from each sample well. Levels of pERK were then expressed as percent of control, using DMSO treated samples as control. The relative IC50 values were calculated in quadruplicate from the normalized dose-response plots using four parameter logistic curve fit. The Experiment for each compound was carried out in one time or multiple times, and the IC50 values were shown as a single value (for a compound measured in a single experiment) or an average value (for a compound measured in multiple experiments).

In experiment [2] the target is SHP2 (Homo sapiens (Human), UniProt Q06124). Put plainly: SHP2 Biochemical Assay (DiFMUP conversion, pIRS1-activated). The conditions noted are these: Table 19; head prints unit as "-M". The protocol: SHP2 activity was monitored by measuring the conversion of the surrogate substrate 6,8-difluoromethylumbelliferyl phosphate (DiFMUP) to the fluorescent product, 6,8-difluoromethylumbelliferone (DiFMU).
SHP2 was pre-incubated with test compounds and the activating peptide pIRS1 (H2N-LN(pY)IDLDLV-(PEG)8-LST(pY)ASINFQK-amide) for 30 min, prior to addition of the 6,8-difluoromethylumbelliferyl phosphate (DiFMUP), (Thermo Fisher D6567). Final assay concentrations were 10 pM SHP2, […] pIRS1 peptide, 50 μM DiFMUP, 25 mM Bis-Tris propane, pH 7.0, 150 mM NaCl, 0.05% (v/v) Tween-20, 0.5 mM TCEP and 5% (v/v) DMSO. Rates of reaction were then measured over 30 min by monitoring fluorescence on a BMG Pherastar reader at excitation 360 nm/emission 450 nm. IC50 values were calculated in singlicate from the normalized dose-response plots using four parameter logistic curve fit. The Experiment for each compound was carried out in one time or multiple times, and the IC50 values were shown as a single value (for a compound measured in a single experiment) or an average value (for a compound measured in multiple experiments).

Sequence of SHP2 (Q06124 whole entry): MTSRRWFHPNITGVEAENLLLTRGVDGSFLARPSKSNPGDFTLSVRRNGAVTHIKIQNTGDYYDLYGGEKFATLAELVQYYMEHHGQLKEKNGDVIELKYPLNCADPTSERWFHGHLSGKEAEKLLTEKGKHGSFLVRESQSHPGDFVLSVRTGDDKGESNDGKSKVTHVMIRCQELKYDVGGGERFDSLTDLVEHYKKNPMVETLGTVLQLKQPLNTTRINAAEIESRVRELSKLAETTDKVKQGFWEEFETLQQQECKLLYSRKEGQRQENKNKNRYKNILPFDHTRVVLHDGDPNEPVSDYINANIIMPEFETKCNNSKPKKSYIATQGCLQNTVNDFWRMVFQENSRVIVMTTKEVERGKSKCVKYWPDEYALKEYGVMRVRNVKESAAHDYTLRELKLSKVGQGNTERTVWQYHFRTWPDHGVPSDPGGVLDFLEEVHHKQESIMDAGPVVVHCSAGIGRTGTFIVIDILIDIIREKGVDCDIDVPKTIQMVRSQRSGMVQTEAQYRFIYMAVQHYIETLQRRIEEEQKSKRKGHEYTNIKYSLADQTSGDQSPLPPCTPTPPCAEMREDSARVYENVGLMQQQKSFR

As a reminder, the IC50 is the midpoint of a concentration-inhibition curve. For the compound `Cn1cc2c(Cl)c(-c3c[nH]c4nc(N5[C@@H]6CC[C@H]5C[C@@H](N)C6)n(C)c(=O)c34)ccc2n1` [Example 8, 2-(endo-3-amino-8-azabicyclo[3.2.1]octan-8-yl)-5-(4-chloro-2-methyl-2H-indazol-5-yl)-3-methyl-3,7-dihydro-4H-pyrrolo[2,3-d]pyrimidin-4-one], the IC50 in experiment [1] stood at 95 nM; in experiment [2], 11 nM.
The matching figures for `Cn1c(N2[C@@H]3CC[C@H]2C[C@@H](N)C3)nc2[nH]cc(-c3ccc4nn(C(C)(C)C)cc4c3Cl)c2c1=O` [Example 9, 2-(endo-3-amino-8-azabicyclo[3.2.1]octan-8-yl)-5-(2-(tert-butyl)-4-chloro-2H-indazol-5-yl)-3-methyl-3,7-dihydro-4H-pyrrolo[2,3-d]pyrimidin-4-one]: 1200 nM and 94 nM.
The matching figures for `Cn1cc2c(Cl)c(-c3c[nH]c4nc(N5[C@@H]6CC[C@H]5C[C@H](N)C6)n(C)c(=O)c34)ccc2n1` [Example 10, 2-(exo-3-amino-8-azabicyclo[3.2.1]octan-8-yl)-5-(4-chloro-2-methyl-2H-indazol-5-yl)-3-methyl-3,7-dihydro-4H-pyrrolo[2,3-d]pyrimidin-4-one]: 170 nM and 8.5 nM.
In the case of `CCn1cc2c(Cl)c(-c3c[nH]c4nc(N5CCC6(CCC[C@H]6N)CC5)n(C)c(=O)c34)ccc2n1` [Example 11, (R)-2-(1-amino-8-azaspiro[4.5]decan-8-yl)-5-(4-chloro-2-ethyl-2H-indazol-5-yl)-3-methyl-3,7-dihydro-4H-pyrrolo[2,3-d]pyrimidin-4-one], the IC50 is 53 nM in experiment [1] and 6.3 nM in experiment [2].
As for `CCn1cc2c(Cl)c(-c3c[nH]c4nc(N5CCC6(CC5)COC[C@H]6N)n(C)c(=O)c34)ccc2n1` [Example 12, (S)-2-(4-amino-2-oxa-8-azaspiro[4.5]decan-8-yl)-5-(4-chloro-2-ethyl-2H-indazol-5-yl)-3-methyl-3,7-dihydro-4H-pyrrolo[2,3-d]pyrimidin-4-one], the IC50 in experiment [1] was determined as 120 nM; in experiment [2], 11 nM.
Consider `CCn1cc2c(Cl)c(-c3c[nH]c4nc(N5[C@@H]6CC[C@H]5C[C@@H](NC)C6)n(C)c(=O)c34)ccc2n1` [Example 13, 5-(4-chloro-2-ethyl-2H-indazol-5-yl)-3-methyl-2-(endo-3-(methylamino)-8-azabicyclo[3.2.1]octan-8-yl)-3,7-dihydro-4H-pyrrolo[2,3-d]pyrimidin-4-one], for which the IC50 in experiment [1] amounted to 340 nM; in experiment [2], 19 nM.
As for `CN[C@H]1C[C@H]2CC[C@@H](C1)N2c1nc2[nH]cc(-c3ccc4nn(C)cc4c3Cl)c2c(=O)n1C` [Example 14, 5-(4-chloro-2-methyl-2H-indazol-5-yl)-3-methyl-2-(endo-3-(methylamino)-8-azabicyclo[3.2.1]octan-8-yl)-3,7-dihydro-4H-pyrrolo[2,3-d]pyrimidin-4-one], the IC50 was 310 nM in experiment [1] and 24 nM in experiment [2].
The matching figures for `CCn1cc2c(Cl)c(-c3c[nH]c4nc(N5[C@@H]6CC[C@H]5C[C@@](C)(N)C6)n(C)c(=O)c34)ccc2n1` [Example 15, 2-(endo-3-amino-3-methyl-8-azabicyclo[3.2.1]octan-8-yl)-5-(4-chloro-2-ethyl-2H-indazol-5-yl)-3-methyl-3,7-dihydro-4H-pyrrolo[2,3-d]pyrimidin-4-one]: 500 nM and 17 nM.
`Cn1cc2c(Cl)c(-c3c[nH]c4nc(N5[C@@H]6CC[C@H]5C[C@@](C)(N)C6)n(C)c(=O)c34)ccc2n1` [Example 16, 2-(endo-3-amino-3-methyl-8-azabicyclo[3.2.1]octan-8-yl)-5-(4-chloro-2-methyl-2H-indazol-5-yl)-3-methyl-3,7-dihydro-4H-pyrrolo[2,3-d]pyrimidin-4-one]: the IC50 in experiment [1] was 110 nM; in experiment [2], 11 nM.
The matching figures for `Cn1cc2c(Cl)c(-c3c[nH]c4nc(N5CC6COCC(C5)N6)n(C)c(=O)c34)ccc2n1` [Example 17, 2-(3-oxa-7,9-diazabicyclo[3.3.1]nonan-7-yl)-5-(4-chloro-2-methyl-2H-indazol-5-yl)-3-methyl-3,7-dihydro-4H-pyrrolo[2,3-d]pyrimidin-4-one]: 800 nM and 43 nM.
Take `Cn1cc2c(Cl)c(-c3c[nH]c4nc(N5C[C@@H]6C[C@H]5CN6)n(C)c(=O)c34)ccc2n1` [Example 21, 2-((1S,4S)-2,5-diazabicyclo[2.2.1]heptan-2-yl)-5-(4-chloro-2-methyl-2H-indazol-5-yl)-3-methyl-3,7-dihydro-4H-pyrrolo[2,3-d]pyrimidin-4-one]: the IC50 came out at 320 nM in experiment [1] and 11 nM in experiment [2].
The matching figures for `Cn1cc2c(Cl)c(-c3c[nH]c4nc(N5C6COCC5CC(N)C6)n(C)c(=O)c34)ccc2n1` (stereo not drawn) [Example 22, 2-(7-amino-3-oxa-9-azabicyclo[3.3.1]nonan-9-yl)-5-(4-chloro-2-methyl-2H-indazol-5-yl)-3-methyl-3,7-dihydro-4H-pyrrolo[2,3-d]pyrimidin-4-one]: 2200 nM and 14 nM.
The matching figures for `Cn1cc2c(Cl)c(-c3c[nH]c4nc(N5C[C@H]6C[C@@H]5CN6)n(C)c(=O)c34)ccc2n1` [Example 23, 2-((1R,4R)-2,5-diazabicyclo[2.2.1]heptan-2-yl)-5-(4-chloro-2-methyl-2H-indazol-5-yl)-3-methyl-3,7-dihydro-4H-pyrrolo[2,3-d]pyrimidin-4-one]: 4100 nM and 120 nM.
Consider `Cn1cc2c(Cl)c(-c3c[nH]c4nc(N5C[C@H]6CC[C@@H](C5)[C@@H]6N)n(C)c(=O)c34)ccc2n1` [Example 24, 2-(exo-8-amino-3-azabicyclo[3.2.1]octan-3-yl)-5-(4-chloro-2-methyl-2H-indazol-5-yl)-3-methyl-3,7-dihydro-4H-pyrrolo[2,3-d]pyrimidin-4-one], for which the values for the half-inhibitory concentration (IC50) in experiment [1] and in experiment [2] were 140 nM and 18 nM, respectively.
The matching figures for `Cn1cc2c(Cl)c(-c3c[nH]c4nc(N5C[C@H]6CC[C@@H](C5)[C@H]6N)n(C)c(=O)c34)ccc2n1` [Example 25, 2-(endo-8-amino-3-azabicyclo[3.2.1]octan-3-yl)-5-(4-chloro-2-methyl-2H-indazol-5-yl)-3-methyl-3,7-dihydro-4H-pyrrolo[2,3-d]pyrimidin-4-one]: 430 nM and 35 nM.
The matching figures for `Cn1cc2c(Cl)c(-c3c[nH]c4nc(N5C6CCCC5CNC6)n(C)c(=O)c34)ccc2n1` [Example 27, 2-(3,9-diazabicyclo[3.3.1]nonan-9-yl)-5-(4-chloro-2-methyl-2H-indazol-5-yl)-3-methyl-3,7-dihydro-4H-pyrrolo[2,3-d]pyrimidin-4-one]: 46 nM and 7 nM.
With `Cn1cc2c(Cl)c(-c3c[nH]c4nc(N5CC6CCC(C5)N6)n(C)c(=O)c34)ccc2n1` [Example 28, 2-(3,8-diazabicyclo[3.2.1]octan-3-yl)-5-(4-chloro-2-methyl-2H-indazol-5-yl)-3-methyl-3,7-dihydro-4H-pyrrolo[2,3-d]pyrimidin-4-one], the values for the IC50 in experiment [1] and in experiment [2] were 680 nM and 19 nM, respectively.
The matching figures for `Cn1cc2c(Cl)c(-c3c[nH]c4nc(N5C6CNCC5C6)n(C)c(=O)c34)ccc2n1` [Example 29, 2-(3,6-diazabicyclo[3.1.1]heptan-6-yl)-5-(4-chloro-2-methyl-2H-indazol-5-yl)-3-methyl-3,7-dihydro-4H-pyrrolo[2,3-d]pyrimidin-4-one]: 2400 nM and 220 nM.

These data come from patent US12037345B2, “Heterobicyclic compounds for inhibiting the activity of SHP2” (TAIHO PHARMACEUTICAL CO., LTD., priority 2018, dated 2024).
